A word on the MIC: it is the lowest concentration found to suppress growth. For orientation: IC50 means the concentration needed to halve the response being measured. Read a high IC50 as a need for much substance. What is called melting point is the temperature of the solid-liquid transition.

Structures are written as SMILES. ≈ marks a conversion by molar mass, not a printed value.

The test system of data set [1] is C. albicans (ATCC 24433). In words: Antifungal microdilution MIC. Type of data set: cell-based. Particulars: Candida albicans, ATCC24433; C. albicans (ATCC 24433); read-out: MIC. The method, then: (§1) The antifungal and antibacterial activities of the synthesized compounds (5a–i) were evaluated in vitro against E. coli (ATCC 25922), S. marcescens (ATCC 8100), K. pneumoniae (ATCC 13883), P. aeruginosa (ATCC 27853), E. faecalis (ATCC 2942), B. subtilis, S. aureus (ATCC 29213), S. epidermidis (ATCC 12228), C. albicans (ATCC 24433), C. krusei (ATCC 6258), and C. parapsilosis (ATCC 22019). The final synthesized compounds were evaluated as antibacterial and antifungal references, in comparison to azithromycin, voriconazole, and fluconazole. Tables 1 and 2 provide a summary of the antimicrobial activity test results and the minimum inhibitory concentrations (MICs) of the compounds (5a–i).
(§2) The antimicrobial activity of the final compounds (5a–i) was screened against eight species of pathogenic bacteria and […] (E. coli (ATCC 25922), S. marcescens (ATCC 8100), K. pneumonia (ATCC 13883), P. aeruginosa (ATCC 27853), E. faecalis (ATCC 2942), B. subtilis (NRRL NRS 744), S. aureus (ATCC 29213), S. epidermidis (ATCC 12228), C. albicans (ATCC 24433), C. glabrata (ATCC 90030), C. krusei (ATCC 6258), and C. parapsilosis (ATCC 22 019)) according to the microdilution standard methods CLSI M07-A9 (2012) and NCCLS M27-A2 (2002), as described in the previous study.[25],[26]
On the technique in general: Dilution methods test growth across graded concentrations, often in twofold steps.

In data set [2] the test system is C. krusei (ATCC 6258). In words: Antifungal microdilution MIC. Particulars: Pichia kudriavzevii, ATCC6258; C. krusei (ATCC 6258); read-out: MIC. Type of data set: cell-based. The method, then:
as §1, §2

Data set [3] concerns C. parapsilosis (ATCC 22019). Description: Antifungal microdilution MIC. The format is cell-based. Particulars: Lodderomyces parapsilosis, ATCC22019; C. parapsilosis (ATCC 22019); read-out: MIC. The protocol: as §1, §2
Data set [4] relates to B. subtilis. In words: Antibacterial microdilution MIC. The format is cell-based. Particulars: Bacillus subtilis; F: B. subtilis, Gram-positive; read-out: MIC. The protocol: as §1, §2
The test system of data set [5] is E. coli (ATCC 25922). Description: Antibacterial microdilution MIC. The format is cell-based. Particulars: Escherichia coli, ATCC25922; A: E. coli (ATCC 25922), Gram-negative; read-out: MIC. The protocol: as §1, §2
The subject of data set [6] is E. faecalis (ATCC 2942). Description: Antibacterial microdilution MIC. Type of data set: cell-based. Particulars: Enterococcus faecalis, ATCC2942; E: E. faecalis (ATCC 2942), Gram-positive; read-out: MIC. The protocol: as §1, §2
Data set [7] relates to K. pneumoniae (ATCC 13883). In words: Antibacterial microdilution MIC. The format is cell-based. Particulars: Klebsiella pneumoniae, ATCC13883; C: K. pneumoniae (ATCC 13883), Gram-negative; read-out: MIC. The protocol:
as §1, §2

Data set [8] has as its system P. aeruginosa (ATCC 27853). In words: Antibacterial microdilution MIC. The format is cell-based. Particulars: Pseudomonas aeruginosa, ATCC27853; D: P. aeruginosa (ATCC 27853), Gram-negative; read-out: MIC. The protocol:
as §1, §2

The subject of data set [9] is S. aureus (ATCC 29213). In words: Antibacterial microdilution MIC. Type of data set: cell-based. Particulars: Staphylococcus aureus, ATCC29213; G: S. aureus (ATCC 29213), Gram-positive; read-out: MIC. The protocol: as §1, §2
For data set [10], the system named is S. epidermidis (ATCC 12228). In words: Antibacterial microdilution MIC. Type of data set: cell-based. Particulars: Staphylococcus epidermidis, ATCC12228; H: S. epidermidis (ATCC 12228), Gram-positive; read-out: MIC. The protocol:
as §1, §2

Data set [11] relates to S. marcescens (ATCC 8100). Description: Antibacterial microdilution MIC. Particulars: Serratia marcescens, ATCC8100; B: S. marcescens (ATCC 8100), Gram-negative; read-out: MIC. Type of data set: cell-based. The method, then: as §1, §2
In data set [12] the test system is L929 fibroblast cell line. In words: Cytotoxicity MTT assay on healthy cells. The format is cell-based. Particulars: L929 healthy mouse fibroblast cells. The protocol: The effect of the compounds between 5a–i on the viability of the L929 cell line was analyzed by MTT assay. The MTT method was performed as previously described.[27]
On the technique in general: Tetrazolium dyes change colour on reduction, which living cells bring about.

On to `CC(C)Nc1nnc(-c2ccc(-c3nc4ccccc4[nH]3)cc2)s1` [Compound 5f, N-Isopropyl-5-(4-(1H-Benzo[d]imidazole-2-Yl)phenyl)-1,3,4-Thiadiazole-2-Amine], for which the melting point was determined as 324.7 °C. In addition, the MIC in data set [1] is 3.9 µg/mL (≈ 11.6 µM). For the same compound, the MIC in [2] amounted to 125 µg/mL (≈ 373 µM). Besides, the MIC in [3] is 125 µg/mL (≈ 373 µM). In addition, the MIC in data set [4] was found to be 125 µg/mL (≈ 373 µM). Also, in data set [5], the MIC amounted to 125 µg/mL (≈ 373 µM). Moreover, in [6], the MIC was determined as 3.9 µg/mL (≈ 11.6 µM). Further, the MIC in data set [7] worked out at 125 µg/mL (≈ 373 µM). Also, in [8], the MIC stood at 125 µg/mL (≈ 373 µM). Also, the MIC in data set [9] came out at 62.5 µg/mL (≈ 186 µM). The MIC in data set [10] came out at 3.9 µg/mL (≈ 11.6 µM). The MIC in data set [11] was found to be 125 µg/mL (≈ 373 µM). Further, in data set [12], 175 ± 3.02 µM corresponded to half-maximal inhibition (IC50).
Compound `CCCNc1nnc(-c2ccc(-c3nc4ccccc4[nH]3)cc2)s1` [Compound 5g, N-Propyl-5-(4-(1H-Benzo[d]imidazole-2-Yl)phenyl)-1,3,4-Thiadiazole-2-Amine] registered a melting point of 275.2 °C. Also, the MIC in data set [1] worked out at 7.81 µg/mL (≈ 23.3 µM). The MIC in data set [2] is 125 µg/mL (≈ 373 µM). For the same compound, in data set [3], the minimum inhibitory concentration (MIC) worked out at 125 µg/mL (≈ 373 µM). In data set [4], the MIC was 125 µg/mL (≈ 373 µM). Further, in [5], the MIC turned out to be 125 µg/mL (≈ 373 µM). For the same compound, in [6], the MIC stood at 15.6 µg/mL (≈ 46.6 µM). For the same compound, the MIC in [7] was 125 µg/mL (≈ 373 µM). For the same compound, the MIC in data set [8] is 125 µg/mL (≈ 373 µM). Besides, the MIC in data set [9] was 31.2 µg/mL (≈ 93.2 µM). The MIC in data set [10] came to 31.2 µg/mL (≈ 93.2 µM). Also, the MIC in data set [11] was 250 µg/mL (≈ 745 µM).
Compound `CC(C)CNc1nnc(-c2ccc(-c3nc4ccccc4[nH]3)cc2)s1` [Compound 5i, N-Isobutyl-5-(4-(1H-Benzo[d]imidazole-2-Yl)phenyl)-1,3,4-Thiadiazole-2-Amine] yielded a melting point of 315.6 °C. For the same compound, the MIC in data set [1] was 31.2 µg/mL (≈ 89.4 µM). Besides, the MIC in data set [2] stood at 125 µg/mL (≈ 358 µM). Further, in data set [3], the MIC was 125 µg/mL (≈ 358 µM). Also, the MIC in data set [4] was determined as 125 µg/mL (≈ 358 µM). Moreover, the MIC in [5] was 125 µg/mL (≈ 358 µM). For the same compound, the MIC in data set [6] is 15.6 µg/mL (≈ 44.7 µM). The MIC in data set [7] came to 62.5 µg/mL (≈ 179 µM). Also, the MIC in data set [8] turned out to be 31.2 µg/mL (≈ 89.4 µM). For the same compound, the MIC in data set [9] was 62.5 µg/mL (≈ 179 µM). For the same compound, the MIC in data set [10] was found to be 62.5 µg/mL (≈ 179 µM). The MIC in data set [11] is 62.5 µg/mL (≈ 179 µM).
`CC[C@H]1OC(=O)[C@H](C)[C@@H](O[C@H]2C[C@@](C)(OC)[C@@H](O)[C@H](C)O2)[C@H](C)[C@@H](O[C@@H]2O[C@H](C)C[C@H](N(C)C)[C@H]2O)[C@](C)(O)C[C@@H](C)CN(C)[C@H](C)[C@@H](O)[C@]1(C)O` [azithromycin, reference compound]: the MIC in data set [4], in [5], in data set [6], in [7], in data set [8] and in data set [9] was below 0.97 µg/mL throughout. For the same compound, the MIC in data set [10] and in data set [11] was below 0.97 µg/mL throughout.
As for `OC(Cn1cncn1)(Cn1cncn1)c1ccc(F)cc1F` [fluconazole, reference compound], the MIC in [1], in data set [2] and in data set [3] was 7.81 µg/mL (≈ 25.5 µM) in each case.
Take `C[C@@H](c1ncncc1F)[C@](O)(Cn1cncn1)c1ccc(F)cc1F` [voriconazole, reference compound]: the MIC in data set [1], in data set [2] and in data set [3] was 3.9 µg/mL (≈ 11.2 µM) in each case.

Values taken from PMC11044166, “Synthesis, DFT Calculations, In Silico Studies, and Antimicrobial Evaluation of Benzimidazole-Thiadiazole Derivatives” (ACS Omega, 2024).
